Experimental data published in patent US20240368139A1, “NOVEL MODULATORS OF EHMT1 AND EHMT2 AND THERAPEUTIC USE THEREOF” (Tango Therapeutics, Inc., priority 2021, published 2024).

What was measured:
H3K9me2 in HCT116 cells = assay: HCT116 H3K9me2 in-cell western assay; format: cell-based; conditions: Homo sapiens, HCT-116, 72 h, HCT116 cells, 72 hours incubation; read-out: H3K9me2 ICW IC50
Description: HCT116 cell line was purchased from ATCC (Manassas, VA, USA). […] Penicillin-Streptomycin and heat inactivated fetal bovine serum were purchased from Hyclone (Logan, UT, USA). DPBS, Corning^R were purchased from VWR (Radnor, PA, USA). Triton′ X-100 was purchased from Sigma (St. Louis, MO, USA). Intercept blocking buffer, DRAQ5, Licor Odyssey Infrared Scanner were purchased from Licor Biosciences (Lincoln, NB, USA). Plate washer was purchased from BioTek (Winooski, VT, USA). […] 16% Paraformaldehyde was purchased from Electron Microscopy Sciences (Hatfield, PA, USA). HCT116 cells were maintained in complete growth medium (RPMI supplemented with 10% heat inactivated fetal bovine serum, 1% Penicillin-Streptomycin) and cultured at 37° C. under 5% CO2. N^2-(4-methoxy-3-(3-(pyrrolidin-1-yl)propoxy)phenyl)-N^4,6-dimethyl]pyrimidine-2,4-diamine (synthesis disclosed in International Application WO2017181177A1) was used as a control compound.
HCT116 cells (ATCC) were trypsinized, counted and seeded in assay medium (RPMI supplemented with 10% heat inactivated fetal bovine serum, 1% Penicillin-Streptomycin) at a concentration of 2,000 cells per well to a 384-well cell culture plate with compounds in 50 μl per well. Plates were incubated with at 37° C. under 5% CO2 for 72 hours. After the incubation, 50 μl per well of 8% paraformaldehyde in PBS was added to the plates and incubated at room temperature for 20 minutes. Plates were transferred to a BioTek (EL406) plate washer and washed 5 times with 110 μl per well of wash buffer (1×PBS containing 0.1% Triton X-100). The plates were next blocked with 50 μl of Intercept blocking buffer for 1 hour at room temperature. Blocking buffer was removed and 30 μl per well of monoclonal primary antibody of H3K9me2 (CST) diluted 1:200 in Intercept blocking buffer were added and plates were incubated overnight at 4° C. The plates were then washed 5 times with 110 μl per well of wash buffer (1×PBS containing 0.1% Triton X-100). Next 30 μl per well of secondary was added (1:400 800 CW goat anti-rabbit IgG in blocking buffer) with 1:1000 DRAQ5 in blocking buffer and incubated for 2 hours at room temperature. The plates were washed 5 times with 110 μl per well of wash buffer (1×PBS containing 0.1% Triton X-100) then with 100 μl per well of water once. Plates were allowed to dry at room temperature then imaged on a Licor Odyssey Infrared Scanner which measured integrated intensity at 700 nm and 800 nm wavelength. Both 700 and 800 channels were scanned.
The average of the ratio values (800 nm/700 nm) for each well was calculated and used to determine the percentage for each test well in the plate. Compounds were serially diluted two-fold in 0.1% DMSO for a total of 10 test concentrations beginning at 10 μM. IC50 curves were generated using duplicate wells per concentration of compound. […] IC50 values were calculated using a non-linear regression of Prism.

human EHMT2 913-1193 = target: T1, human EHMT2 913-1193 (Homo sapiens, UniProt Q96KQ7); assay: EHMT2 enzyme assay on histone peptide substrate (3H-SAM SPA); conditions: EHMT2 IC50, recombinant human EHMT2 913-1193, histone peptide substrate
T1 sequence (Q96KQ7 913-1193): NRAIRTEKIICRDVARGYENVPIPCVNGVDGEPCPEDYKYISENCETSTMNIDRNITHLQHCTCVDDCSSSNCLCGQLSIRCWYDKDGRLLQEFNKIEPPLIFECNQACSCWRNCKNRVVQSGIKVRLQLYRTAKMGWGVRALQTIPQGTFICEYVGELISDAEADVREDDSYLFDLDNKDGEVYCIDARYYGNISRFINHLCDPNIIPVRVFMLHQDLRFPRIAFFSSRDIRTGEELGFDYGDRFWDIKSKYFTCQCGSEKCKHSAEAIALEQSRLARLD

human EHMT1 982-1266 = target: T2, human EHMT1 982-1266 (Homo sapiens, UniProt Q9H9B1); assay: EHMT1 enzyme assay on histone peptide substrate (3H-SAM SPA); conditions: EHMT1 IC50, recombinant human EHMT1 982-1266, histone peptide substrate
T2 sequence (Q9H9B1 982-1266): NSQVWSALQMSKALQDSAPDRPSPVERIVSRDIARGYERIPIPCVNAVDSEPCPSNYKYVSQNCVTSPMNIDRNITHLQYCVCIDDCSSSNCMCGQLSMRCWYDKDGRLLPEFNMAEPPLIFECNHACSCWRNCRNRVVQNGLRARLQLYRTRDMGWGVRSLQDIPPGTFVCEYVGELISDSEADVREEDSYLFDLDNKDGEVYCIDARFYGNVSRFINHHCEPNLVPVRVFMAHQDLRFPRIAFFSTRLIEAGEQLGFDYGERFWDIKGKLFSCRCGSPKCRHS

| SMILES | IC50 (H3K9me2 in HCT116 cells) [nM] | IC50 (human EHMT2 913-1193) [nM] | IC50 (human EHMT1 982-1266) [nM] |
| --- | --- | --- | --- |
| CNc1cc(C)nc(Nc2cc3c(c(C4=C[C@H]5CNC[C@H]5C4)c2)OCC3)n1 (racemic) [Compound 133, N2-[7-(1,2,3,3a,6,6a-hexahydrocyclopenta [c]pyrrol-5-yl)-2,3-dihydrobenzofuran-5-yl]-N4,6-dimethyl-pyrimidine-2,4-diamine] | 500 to 2000 | 500 to 2000 | 100 to 500 |
| CNc1cc(C)nc(Nc2cc3c(c(C4=C[C@H]5CNC[C@H]5C4)c2)OC(F)(F)O3)n1 (racemic) [Compound 143, N2-[7-(1,2,3,3a,6,6a-hexahydrocyclopenta[c]pyrrol-5-yl)-2,2-difluoro-1,3-benzodioxol-5-yl]-N4,6-dimethyl-pyrimidine-2,4-diamine] | > 2000 | > 2000 | 100 to 500 |
| CNc1cc(C)nc(Nc2cc3c(c(C4=C[C@@H]5CNC[C@@H]5C4)c2F)OCC3)n1 (racemic) [Compound 359, N2-[7-(1,2,3,3a,6,6a-hexahydrocyclopenta[c]pyrrol-5-yl)-6-fluoro-2,3-dihydrobenzofuran-5-yl]-N4,6-dimethyl-pyrimidine-2,4-diamine] | 100 to 500 | 100 to 500 | < 100 |
| CNc1cc(C)nc(Nc2cc3c(c(C4=CCN(C)CC(O)C4)c2F)OCC3)n1 (single isomer, unassigned) [Compound 352] | < 100 | < 100 | < 100 |
| CNc1cc(C)nc(Nc2cc3c(c(C4=CCNCC(O)C4)c2C)OCCC3)n1 (single isomer, unassigned) [Compound 355] | < 100 | < 100 | < 100 |
| CNc1cc(C)nc(Nc2cc3c(c(C4=CCNCC(O)C4)c2C)OCC3)n1 (single isomer, unassigned) [Compound 358] | 100 to 500 | 100 to 500 | 100 to 500 |
| CNc1cc(C)nc(Nc2cc3c(c(C4=CCN(C)CC(O)C4)c2C)OCC3)n1 (single isomer, unassigned) [Compound 375] | 100 to 500 | 500 to 2000 | 100 to 500 |
| CNc1cc(C)nc(Nc2cc3c(c(C4=CCNCC(O)C4)c2Cl)OCC3)n1 (single isomer, unassigned) [Compound 376] | < 100 | 100 to 500 | < 100 |
| CNc1cc(C)nc(Nc2cc3c(c(C4=CCNC(C)CC4)c2C)OCC3)n1 (single isomer, unassigned) [Compound 383] | < 100 | < 100 | < 100 |
| CNc1cc(C)nc(Nc2cc3c(c(C4=CCNCC(O)C4)c2F)OCO3)n1 (single isomer, unassigned) [Compound 428] | < 100 | < 100 | < 100 |
| CNc1cc(C)nc(Nc2cc3c(c(C4=CCC(N)CC4)c2F)OCC3)n1 (single isomer, unassigned) [Compound 435] | < 100 | 100 to 500 | < 100 |
| CNc1cc(C)nc(Nc2cc3c(c(C4=CCNC[C@H](O)C4)c2F)OC[C@H]3C)n1 (stereo in doubt) [Compound 398, rel-(3R)-5-[rel-(3S)-6-fluoro-3-methyl-5-[[4-methyl-6-(methylamino)pyrimidin-2-yl]amino]-2,3-dihydrobenzofuran-7-yl]-2,3,4,7-tetrahydro-1H-azepin-3-ol] | < 100 | 100 to 500 | < 100 |
| CNc1cc(C)nc(Nc2cc3c(c(C4=CCNC[C@H](O)C4)c2F)OC[C@@H]3C)n1 (stereo in doubt) [Compound 401, rel-(3R)-5-[rel-(3R)-6-fluoro-3-methyl-5-[[4-methyl-6-(methylamino)pyrimidin-2-yl]amino]-2,3-dihydrobenzofuran-7-yl]-2,3,4,7-tetrahydro-1H-azepin-3-ol] | < 100 | 100 to 500 | < 100 |
| CNc1cc(C)nc(Nc2cc3c(c(C4=CCNC[C@@H](O)C4)c2F)OC[C@H]3C)n1 (stereo in doubt) [Compound 420, rel-(3S)-5-[rel-(3S)-6-fluoro-3-methyl-5-[[4-methyl-6-(methylamino)pyrimidin-2-yl]amino]-2,3-dihydrobenzofuran-7-yl]-2,3,4,7-tetrahydro-1H-azepin-3-ol] | < 100 | < 100 | < 100 |
| CNc1cc(C)nc(Nc2cc3c(c(C4=CCNC[C@@H](O)C4)c2F)OC[C@@H]3C)n1 (stereo in doubt) [Compound 422, rel-(3S)-5-[rel-(3R)-6-fluoro-3-methyl-5-[[4-methyl-6-(methylamino)pyrimidin-2-yl]amino]-2,3-dihydrobenzofuran-7-yl]-2,3,4,7-tetrahydro-1H-azepin-3-ol] | < 100 | < 100 | < 100 |
| CNc1cc(C)nc(Nc2cc(OCCCN3CCCC3)c3occc3c2)n1 [Compound 102, N4,6-dimethyl-N2-[7-(3-pyrrolidin-1-ylpropoxy)benzofuran-5-yl]pyrimidine-2,4-diamine] | 500 to 2000 | 500 to 2000 | 100 to 500 |
| CNc1cc(C2CCCCC2)nc(Nc2cc3c(c(OCCCN4CCCC4)c2)OCC3)n1 [Compound 104, 6-cyclohexyl-N4-methyl-N2-[7-(3-pyrrolidin-1-ylpropoxy)-2,3-dihydrobenzofuran-5-yl]pyrimidine-2,4-diamine] | > 2000 | > 2000 | > 2000 |
| CNc1cc(C)nc(Nc2cc3c(c(C4CCCNCC4)c2)OCC3)n1 (stereo not shown) [Compound 106, N2-[7-(azepan-4-yl)-2,3-dihydrobenzofuran-5-yl]-N4,6-dimethyl-pyrimidine-2,4-diamine] | 100 to 500 | 500 to 2000 | 500 to 2000 |
| CNc1cc(C)nc(Nc2cc3c(c(C4CCCN(C)CC4)c2)OCC3)n1 (stereo not shown) [Compound 107, N4,6-dimethyl-N2-[7-(1-methylazepan-4-yl)-2,3-dihydrobenzofuran-5-yl]pyrimidine-2,4-diamine] | 100 to 500 | 500 to 2000 | 100 to 500 |
| CNc1nc(Nc2cc3c(c(OCCCN4CCCC4)c2)OCC3)nc(C)c1F [Compound 108, 5-fluoro-N4,6-dimethyl-N2-[7-(3-pyrrolidin-1-ylpropoxy)-2,3-dihydrobenzofuran-5-yl]pyrimidine-2,4-diamine] | > 2000 | > 2000 | > 2000 |
| Cc1cc(N(C)C)nc(Nc2cc3c(c(C4=CCN(C)CCC4)c2)OCC3)n1 [Compound 139] | 500 to 2000 | – | – |
| CNc1cc(C)nc(Nc2cc3c(c(C4=CCNC(C)CC4)c2F)OCC3)n1 (stereo not shown) [Compound 202] | < 100 | – | – |
| [2H]Cc1cc(NC([2H])([2H])[2H])nc(Nc2cc3c(c(C4=CCNCCC4)c2F)OCC3)n1 [Compound 249] | < 100 | – | – |
| [2H]C([2H])([2H])Nc1cc(C)nc(Nc2cc3c(c(C4=CCNCCC4)c2F)OCC3)n1 [Compound 253] | < 100 | – | – |
